We go through 7 compounds from PMC2758355 (Chemical research in toxicology, 2009).

The Ki is the dissociation constant of the complex between target and ligand, obtained from inhibition or displacement.

Data set [1] has as its target T1, ERα (Homo sapiens, UniProt P03372).
T1 sequence (P03372 1-595): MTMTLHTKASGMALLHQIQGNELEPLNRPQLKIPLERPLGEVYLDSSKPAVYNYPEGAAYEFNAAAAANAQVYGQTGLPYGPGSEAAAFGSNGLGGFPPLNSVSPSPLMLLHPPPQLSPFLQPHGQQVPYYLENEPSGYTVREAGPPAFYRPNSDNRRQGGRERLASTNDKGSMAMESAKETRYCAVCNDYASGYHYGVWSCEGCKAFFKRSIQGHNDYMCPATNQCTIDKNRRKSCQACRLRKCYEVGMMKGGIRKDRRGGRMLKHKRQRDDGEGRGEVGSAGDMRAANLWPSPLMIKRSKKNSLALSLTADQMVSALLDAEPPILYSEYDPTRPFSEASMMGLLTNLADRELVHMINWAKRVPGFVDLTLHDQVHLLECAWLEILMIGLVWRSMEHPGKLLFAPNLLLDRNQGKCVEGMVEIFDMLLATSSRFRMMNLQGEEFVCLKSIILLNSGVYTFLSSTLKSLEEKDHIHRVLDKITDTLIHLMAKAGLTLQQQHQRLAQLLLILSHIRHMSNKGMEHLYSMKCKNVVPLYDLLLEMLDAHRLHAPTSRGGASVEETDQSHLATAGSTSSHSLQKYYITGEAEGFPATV
The data set can be described thus: Competition binding with [3H]estradiol in MCF-7 cells. Conditions: for activity in in vitro assays (result in words): binding and transactivation assays, experimental testing; for Ki: competition with radioactive-labeled estradiol.

The conditions of data set [2]: established by JECFA; ref www.fao.org/ag/agn/jecfa-additives; cited from earlier work.
The target of data set [3] is T1, ERα. Conditions: cited from earlier work.
The subject of a further data set is ER. Conditions: cited from earlier work.

Entries after “also recorded” stand apart in the source; their conditions may differ.

As for `CCCOC(=O)c1cc(O)c(O)c(O)c1` [propyl gallate], on ERα [1], the “activity in in vitro assays (result in words)” value (“activity in in vitro assays” for short) is listed as “active”. Moreover, the Ki on ERα [1] (binding constant, Figure 4a) is 54 nM; on ERα [1] (pKi), 40.7 nM. The acceptable daily intake in data set [2] is on record as 0−1.4 mg/kg. The “transactivation activity (result in words)” value at ERα [3] is “high micromolar range”.
For `CC(Cc1ccc(O)c(O)c1)C(C)Cc1ccc(O)c(O)c1` (centres unmarked) [nordihydroguaiaretic acid], the “binding to ER (result in words)” value in the data set on ER is on record as “known to bind to ER; also recorded: nanomolar binding affinity/potency”.
Regarding `COc1cc(/C=C/C(=O)CC(=O)/C=C/c2ccc(O)c(OC)c2)ccc1O` [curcumin], on ERα [1] (competitor 1 nM to 0.25 μM), the “binding to the receptor in the competition assay (result in words)” value is on record as “lack binding activity”.
For `CCCOC(=O)c1ccc(O)cc1` [propyl p-hydroxybenzoate], the “binding to ER (result in words)” value in the data set on ER is listed as “known to bind to ER”.
As for `COc1cc(CNC(=O)CCCC/C=C/C(C)C)ccc1O` [capsaicin], the “activity in in vitro assays” value at ERα [1] was “inactive”.
Take `CCCCOC(=O)c1ccc(O)cc1` [butyl p-hydroxybenzoate]: the “binding to ER (result in words)” value in the data set on ER is on record as “known to bind to ER; also recorded: weak binders”.
For the compound `CCCCCCCCOC(=O)c1cc(O)c(O)c(O)c1` [octyl gallate], at ERα [1], the “activity in in vitro assays” value is recorded as “only the propyl gallate resulted active”.
